Measurements taken from patent US10710978B2, “STK4 inhibitors for treatment of hematologic malignancies” (Dana-Farber Cancer Institute, Inc., priority 2015, dated 2020).
Values joined by “and” are separate entries in the source; they are usually repeats but may differ in a detail not shown here. Identical values can stand only once. Like-named read-outs stand apart in the source and are kept apart here.

Experiments:
Assay in all cases: KiNativ assay
Format in all cases: binding
Details in all cases: H929 live cell
JAK1 domain2 = JAK1 domain2 (Homo sapiens (Human), UniProt P23458)
Protocol: (§1) Biochemical IC50s of the compounds of the present disclosure against various kinases were measured in a KiNativ assay. Compounds were screened in duplicate at 10 μM in H929 live cell. IC50 was measured via Mass spectroscopy (MS).

SMG1 = SMG1 (Homo sapiens (Human), UniProt Q96Q15)
Protocol: as §1

RSK2 domain1 = RSK2 domain1 (Homo sapiens (Human), UniProt P51812)
Protocol: as §1

STLK6 = STLK6 (Homo sapiens (Human), UniProt Q9C0K7)
Chain of STLK6 (Q9C0K7 whole entry): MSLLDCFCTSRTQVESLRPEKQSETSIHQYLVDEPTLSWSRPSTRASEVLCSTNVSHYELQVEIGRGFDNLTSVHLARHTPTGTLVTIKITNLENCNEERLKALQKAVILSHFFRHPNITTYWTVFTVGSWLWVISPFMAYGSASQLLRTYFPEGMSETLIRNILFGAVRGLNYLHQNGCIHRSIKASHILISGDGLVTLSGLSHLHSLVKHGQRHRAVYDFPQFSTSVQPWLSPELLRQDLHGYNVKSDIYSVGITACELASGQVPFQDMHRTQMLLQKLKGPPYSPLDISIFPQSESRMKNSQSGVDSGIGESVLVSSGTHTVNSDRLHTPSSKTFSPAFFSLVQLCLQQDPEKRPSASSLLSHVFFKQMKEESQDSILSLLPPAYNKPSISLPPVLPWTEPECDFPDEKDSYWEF
Protocol: as §1

NEK6, NEK7 = system: NEK6, NEK7
Protocol: as §1

PITSLRE = system: PITSLRE
Protocol: as §1

MAP3K2 = MAP3K2 (Homo sapiens (Human), UniProt Q9Y2U5)
Protocol: as §1

p70S6K = p70S6K (Homo sapiens (Human), UniProt P23443)
Protocol: as §1

MAP3K5 = MAP3K5 (Homo sapiens (Human), UniProt Q99683)
Chain of MAP3K5 (Q99683 whole entry): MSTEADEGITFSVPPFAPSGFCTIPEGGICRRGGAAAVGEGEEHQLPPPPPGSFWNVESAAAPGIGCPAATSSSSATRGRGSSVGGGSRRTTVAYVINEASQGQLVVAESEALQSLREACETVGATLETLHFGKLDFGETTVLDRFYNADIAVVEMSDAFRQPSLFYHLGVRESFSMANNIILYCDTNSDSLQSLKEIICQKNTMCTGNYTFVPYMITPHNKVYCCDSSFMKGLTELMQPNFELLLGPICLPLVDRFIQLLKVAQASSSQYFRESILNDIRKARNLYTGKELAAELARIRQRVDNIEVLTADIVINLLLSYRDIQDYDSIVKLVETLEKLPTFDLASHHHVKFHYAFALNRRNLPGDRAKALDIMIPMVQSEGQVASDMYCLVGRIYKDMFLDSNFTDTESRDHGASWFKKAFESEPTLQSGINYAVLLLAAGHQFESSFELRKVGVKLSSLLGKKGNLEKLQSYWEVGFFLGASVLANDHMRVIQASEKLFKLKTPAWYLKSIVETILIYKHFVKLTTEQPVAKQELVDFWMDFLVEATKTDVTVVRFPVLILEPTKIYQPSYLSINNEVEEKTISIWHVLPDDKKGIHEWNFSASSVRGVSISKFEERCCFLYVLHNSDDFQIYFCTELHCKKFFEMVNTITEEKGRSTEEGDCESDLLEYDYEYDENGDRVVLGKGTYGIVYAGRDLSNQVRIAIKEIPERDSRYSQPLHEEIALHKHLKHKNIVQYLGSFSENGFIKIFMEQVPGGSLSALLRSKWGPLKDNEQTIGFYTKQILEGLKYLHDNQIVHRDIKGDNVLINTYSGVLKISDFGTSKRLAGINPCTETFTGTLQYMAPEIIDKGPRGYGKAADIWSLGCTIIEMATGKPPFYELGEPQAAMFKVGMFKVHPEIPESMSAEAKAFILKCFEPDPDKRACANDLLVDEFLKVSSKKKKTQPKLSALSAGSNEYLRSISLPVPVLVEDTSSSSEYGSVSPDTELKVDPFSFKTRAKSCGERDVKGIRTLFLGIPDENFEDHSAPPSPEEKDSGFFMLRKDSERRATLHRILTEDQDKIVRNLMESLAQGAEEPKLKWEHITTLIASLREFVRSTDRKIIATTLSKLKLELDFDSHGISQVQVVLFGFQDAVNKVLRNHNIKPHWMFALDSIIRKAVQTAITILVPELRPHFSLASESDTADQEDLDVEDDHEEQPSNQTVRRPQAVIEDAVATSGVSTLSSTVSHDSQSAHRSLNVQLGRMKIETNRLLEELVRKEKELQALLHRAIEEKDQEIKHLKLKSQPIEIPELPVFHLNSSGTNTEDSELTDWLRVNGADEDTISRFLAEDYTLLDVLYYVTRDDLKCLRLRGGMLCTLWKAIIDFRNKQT
Protocol: as §1

MST1 = MST1 (Homo sapiens (Human), UniProt Q13043)
Protocol: as §1

PAN3 = PAN3 (Homo sapiens (Human), UniProt Q58A45)
Protocol: as §1

MARK4 = MARK4 (Homo sapiens (Human), UniProt Q96L34)
Protocol: as §1

GCK = GCK (Homo sapiens (Human), UniProt Q12851)
Protocol: as §1

AKT1 = AKT1 (Homo sapiens (Human), UniProt P31749)
Protocol: as §1

MAP3K1 = MAP3K1 (Homo sapiens (Human), UniProt Q13233)
Chain of MAP3K1 (Q13233 whole entry): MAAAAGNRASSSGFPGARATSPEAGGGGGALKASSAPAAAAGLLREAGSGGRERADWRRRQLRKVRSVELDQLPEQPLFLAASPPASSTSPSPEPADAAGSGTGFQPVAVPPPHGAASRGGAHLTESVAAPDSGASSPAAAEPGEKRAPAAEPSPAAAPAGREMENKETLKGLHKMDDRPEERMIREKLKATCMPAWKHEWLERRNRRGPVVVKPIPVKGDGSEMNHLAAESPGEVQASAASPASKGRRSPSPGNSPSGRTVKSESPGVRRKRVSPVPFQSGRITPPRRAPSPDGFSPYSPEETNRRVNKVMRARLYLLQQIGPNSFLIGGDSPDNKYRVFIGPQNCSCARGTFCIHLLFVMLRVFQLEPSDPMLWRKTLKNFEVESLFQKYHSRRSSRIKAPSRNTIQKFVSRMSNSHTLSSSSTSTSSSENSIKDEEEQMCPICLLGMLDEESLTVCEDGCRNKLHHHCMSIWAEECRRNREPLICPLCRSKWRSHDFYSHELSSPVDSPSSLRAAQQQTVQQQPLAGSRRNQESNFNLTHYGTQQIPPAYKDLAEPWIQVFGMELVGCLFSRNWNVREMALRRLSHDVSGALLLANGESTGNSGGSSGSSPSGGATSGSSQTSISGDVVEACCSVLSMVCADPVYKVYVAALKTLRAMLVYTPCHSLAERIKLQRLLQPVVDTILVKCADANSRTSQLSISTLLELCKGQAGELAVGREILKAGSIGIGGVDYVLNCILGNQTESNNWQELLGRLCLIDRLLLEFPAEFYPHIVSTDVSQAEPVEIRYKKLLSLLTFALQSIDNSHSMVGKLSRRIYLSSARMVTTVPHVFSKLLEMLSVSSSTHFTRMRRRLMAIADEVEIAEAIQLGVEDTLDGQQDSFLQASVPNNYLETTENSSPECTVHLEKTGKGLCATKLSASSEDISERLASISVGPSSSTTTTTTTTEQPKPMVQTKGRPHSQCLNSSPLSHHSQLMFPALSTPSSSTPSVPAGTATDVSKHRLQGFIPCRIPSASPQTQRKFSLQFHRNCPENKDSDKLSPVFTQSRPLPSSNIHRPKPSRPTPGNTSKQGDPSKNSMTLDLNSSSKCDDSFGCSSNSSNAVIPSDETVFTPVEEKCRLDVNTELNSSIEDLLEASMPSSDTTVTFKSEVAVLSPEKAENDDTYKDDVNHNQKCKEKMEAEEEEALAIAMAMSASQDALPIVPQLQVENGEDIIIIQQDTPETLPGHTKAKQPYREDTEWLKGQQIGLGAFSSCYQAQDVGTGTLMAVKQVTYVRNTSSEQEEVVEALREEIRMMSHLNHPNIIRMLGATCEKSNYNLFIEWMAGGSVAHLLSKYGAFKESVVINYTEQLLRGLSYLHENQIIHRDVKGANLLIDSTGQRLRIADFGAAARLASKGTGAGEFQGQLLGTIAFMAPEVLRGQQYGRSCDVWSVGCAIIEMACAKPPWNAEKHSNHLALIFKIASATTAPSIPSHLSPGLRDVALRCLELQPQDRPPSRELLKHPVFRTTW
Protocol: as §1

ZAK = ZAK (Homo sapiens (Human), UniProt Q9NYL2)
Chain of ZAK (Q9NYL2 whole entry): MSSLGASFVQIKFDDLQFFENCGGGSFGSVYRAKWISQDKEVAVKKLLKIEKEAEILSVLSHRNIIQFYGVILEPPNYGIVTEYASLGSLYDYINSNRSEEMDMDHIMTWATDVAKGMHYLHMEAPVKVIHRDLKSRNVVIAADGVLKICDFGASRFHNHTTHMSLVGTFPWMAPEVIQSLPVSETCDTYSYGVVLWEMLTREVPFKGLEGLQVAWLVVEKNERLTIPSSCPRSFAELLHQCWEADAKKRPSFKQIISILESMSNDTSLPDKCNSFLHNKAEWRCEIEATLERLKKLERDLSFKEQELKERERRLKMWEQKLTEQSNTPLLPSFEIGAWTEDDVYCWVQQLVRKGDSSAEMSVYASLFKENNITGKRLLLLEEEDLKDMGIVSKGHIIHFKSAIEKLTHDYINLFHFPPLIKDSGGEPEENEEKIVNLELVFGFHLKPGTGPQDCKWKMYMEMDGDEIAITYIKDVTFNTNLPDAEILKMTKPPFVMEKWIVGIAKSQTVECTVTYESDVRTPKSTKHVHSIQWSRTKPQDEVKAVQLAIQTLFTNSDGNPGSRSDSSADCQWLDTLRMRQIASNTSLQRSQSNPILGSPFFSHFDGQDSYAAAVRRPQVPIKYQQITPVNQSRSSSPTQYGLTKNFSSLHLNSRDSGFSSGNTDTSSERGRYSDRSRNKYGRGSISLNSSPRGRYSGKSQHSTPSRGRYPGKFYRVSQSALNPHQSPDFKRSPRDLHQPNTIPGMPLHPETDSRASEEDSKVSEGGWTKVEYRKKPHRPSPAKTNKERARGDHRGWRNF
Protocol: as §1

NEK4 = NEK4 (Homo sapiens (Human), UniProt P51957)
Protocol: as §1

MAP2K1, MAP2K2 = system: MAP2K1, MAP2K2
Protocol: as §1

IRAK1 = IRAK1 (Homo sapiens (Human), UniProt P51617)
Protocol: as §1

MAP2K4 = MAP2K4 (Homo sapiens (Human), UniProt P45985)
Chain of MAP2K4 (P45985 whole entry): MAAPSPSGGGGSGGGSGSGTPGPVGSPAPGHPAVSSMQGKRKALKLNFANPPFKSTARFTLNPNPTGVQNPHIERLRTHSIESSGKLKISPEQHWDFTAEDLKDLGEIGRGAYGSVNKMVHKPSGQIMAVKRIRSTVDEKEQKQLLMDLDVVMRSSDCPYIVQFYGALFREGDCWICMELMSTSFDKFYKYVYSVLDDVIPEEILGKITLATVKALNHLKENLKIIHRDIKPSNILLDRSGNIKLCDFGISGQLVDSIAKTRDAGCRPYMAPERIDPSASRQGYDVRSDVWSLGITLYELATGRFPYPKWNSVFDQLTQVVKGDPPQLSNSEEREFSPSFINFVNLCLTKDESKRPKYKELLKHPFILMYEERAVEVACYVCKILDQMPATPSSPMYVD
Protocol: as §1

JNK1, JNK2, JNK3 = system: JNK1, JNK2, JNK3
Protocol: as §1

IRE1 = IRE1 (Homo sapiens (Human), UniProt O75460)
Protocol: as §1

Wnk1, Wnk2, Wnk3 = system: Wnk1, Wnk2, Wnk3
Protocol: as §1

p70S6Kb = p70S6Kb (Homo sapiens (Human), UniProt Q9UBS0)
Protocol: as §1

MST1, MST2 = system: MST1, MST2
Protocol: as §1

ACK = ACK (Homo sapiens (Human), UniProt Q07912)
Protocol: as §1

PEK = PEK (Homo sapiens (Human), UniProt Q9NZJ5)
Protocol: as §1

JAK1 domain1 = JAK1 domain1 (Homo sapiens (Human), UniProt P23458)
Protocol: as §1

SRPK2 = SRPK2 (Homo sapiens (Human), UniProt P78362)
Protocol: as §1

PRPK = PRPK (Homo sapiens (Human), UniProt Q96S44)
Chain of PRPK (Q96S44 whole entry): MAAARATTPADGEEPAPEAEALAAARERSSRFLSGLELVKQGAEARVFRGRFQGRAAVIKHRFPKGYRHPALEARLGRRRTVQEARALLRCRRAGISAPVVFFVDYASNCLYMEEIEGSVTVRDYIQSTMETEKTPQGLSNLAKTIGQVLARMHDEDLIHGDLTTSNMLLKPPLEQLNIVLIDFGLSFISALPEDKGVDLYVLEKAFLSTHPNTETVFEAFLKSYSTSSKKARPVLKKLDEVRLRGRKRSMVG
Protocol: as §1

ULK1 = ULK1 (Homo sapiens (Human), UniProt O75385)
Protocol: as §1

KHS1 = KHS1 (Homo sapiens (Human), UniProt Q9Y4K4)
Protocol: as §1

PKD2 = PKD2 (Homo sapiens (Human), UniProt Q9BZL6)
Protocol: as §1

NuaK2 = NuaK2 (Homo sapiens (Human), UniProt Q9H093)
Protocol: as §1

CN(C1CC1)S(=O)(=O)c1ccc(-c2cnc(N)c(-c3ccc4c(c3)CCNC4=O)c2)c(F)c1 [Compound I-28, 4-(6-amino-5-(1-oxo-1,2,3,4-tetrahydroisoquinolin-6-yl)pyridin-3-yl)-N-cyclopropyl-3-fluoro-N-methylbenzenesulfonamide]
inhibition at 10 µM (JAK1 domain2; read-out: % inhibition (range)): 0%
inhibition at 10 µM (JAK1 domain2; read-out: inhibition (10 μM)): -33.7%
inhibition at 10 µM (SMG1; read-out: % inhibition (range)): 35 to 50%
inhibition at 10 µM (SMG1; read-out: inhibition (10 μM)): 42.9%
inhibition at 10 µM (RSK2 domain1; read-out: % inhibition (range)): 0%
inhibition at 10 µM (RSK2 domain1; read-out: inhibition (10 μM)): 20.3%
inhibition at 10 µM (STLK6; read-out: % inhibition (range)): 0%
inhibition at 10 µM (STLK6; read-out: inhibition (10 μM)): 1.4%
% inhibition (range) (NEK6, NEK7; 10 μM): 0.0%
inhibition (10 μM) (NEK6, NEK7): −10.5%
% inhibition (range) (PITSLRE; 10 μM): 0.0%
inhibition (10 μM) (PITSLRE): −6.3%
inhibition at 10 µM (MAP3K2; read-out: % inhibition (range)): 0%
inhibition at 10 µM (MAP3K2; read-out: inhibition (10 μM)): 7%
inhibition at 10 µM (p70S6K; read-out: % inhibition (range)): 0%
inhibition at 10 µM (p70S6K; read-out: inhibition (10 μM)): -22.7%
inhibition at 10 µM (MAP3K5; read-out: % inhibition (range)): 0%
inhibition at 10 µM (MAP3K5; read-out: inhibition (10 μM)): -6.2%
inhibition at 10 µM (MST1; read-out: % inhibition (range)): > 90%
inhibition at 10 µM (MST1; read-out: inhibition (10 μM)): 94.5%
inhibition at 10 µM (PAN3; read-out: % inhibition (range)): 0%
inhibition at 10 µM (PAN3; read-out: inhibition (10 μM)): -45.1%
inhibition at 10 µM (MARK4; read-out: % inhibition (range)): 0%
inhibition at 10 µM (MARK4; read-out: inhibition (10 μM)): 23.1%
inhibition at 10 µM (GCK; read-out: % inhibition (range)): 75 to 90%
inhibition at 10 µM (GCK; read-out: inhibition (10 μM)): 84.7%
inhibition at 10 µM (AKT1; read-out: % inhibition (range)): 0%
inhibition at 10 µM (AKT1; read-out: inhibition (10 μM)): 11.1%
inhibition at 10 µM (MAP3K1; read-out: % inhibition (range)): > 90%
inhibition at 10 µM (MAP3K1; read-out: inhibition (10 μM)): 91.1%
inhibition at 10 µM (ZAK; read-out: % inhibition (range)): 0%
inhibition at 10 µM (ZAK; read-out: inhibition (10 μM)): 18.2%
inhibition at 10 µM (NEK4; read-out: % inhibition (range)): 0%
inhibition at 10 µM (NEK4; read-out: inhibition (10 μM)): -2.8%
% inhibition (range) (MAP2K1, MAP2K2; 10 μM): 0.0%
inhibition (10 μM) (MAP2K1, MAP2K2): 0.5% and −0.9%
inhibition at 10 µM (IRAK1; read-out: % inhibition (range)): 50 to 75%
inhibition at 10 µM (IRAK1; read-out: inhibition (10 μM)): 67.8%
inhibition at 10 µM (MAP2K4; read-out: % inhibition (range)): 0%
inhibition at 10 µM (MAP2K4; read-out: inhibition (10 μM)): 32.5%
% inhibition (range) (JNK1, JNK2, JNK3; 10 μM): 0.0%
inhibition (10 μM) (JNK1, JNK2, JNK3): −12.9%
inhibition at 10 µM (IRE1; read-out: % inhibition (range)): 0%
inhibition at 10 µM (IRE1; read-out: inhibition (10 μM)): -34.1%
% inhibition (range) (Wnk1, Wnk2, Wnk3; 10 μM): 0.0%
inhibition (10 μM) (Wnk1, Wnk2, Wnk3): −31.8%
inhibition at 10 µM (p70S6Kb; read-out: % inhibition (range)): 0%
inhibition at 10 µM (p70S6Kb; read-out: inhibition (10 μM)): -14.4%
% inhibition (range) (MST1, MST2; 10 μM): >90%
inhibition (10 μM) (MST1, MST2): 97.5%
inhibition at 10 µM (ACK; read-out: % inhibition (range)): 0%
inhibition at 10 µM (ACK; read-out: inhibition (10 μM)): -18.8%
inhibition at 10 µM (PEK; read-out: % inhibition (range)): 0%
inhibition at 10 µM (PEK; read-out: inhibition (10 μM)): -15.7%
inhibition at 10 µM (JAK1 domain1; read-out: % inhibition (range)): 0%
inhibition at 10 µM (JAK1 domain1; read-out: inhibition (10 μM)): -38.6%
inhibition at 10 µM (SRPK2; read-out: % inhibition (range)): 0%
inhibition at 10 µM (SRPK2; read-out: inhibition (10 μM)): 8.5%
inhibition at 10 µM (PRPK; read-out: % inhibition (range)): 0%
inhibition at 10 µM (PRPK; read-out: inhibition (10 μM)): 10.1%
inhibition at 10 µM (ULK1; read-out: % inhibition (range)): 0%
inhibition at 10 µM (ULK1; read-out: inhibition (10 μM)): -54.6%
inhibition at 10 µM (KHS1; read-out: % inhibition (range)): 75 to 90%
inhibition at 10 µM (KHS1; read-out: inhibition (10 μM)): 75.6%
inhibition at 10 µM (PKD2; read-out: % inhibition (range)): 35 to 50%
inhibition at 10 µM (PKD2; read-out: inhibition (10 μM)): 38.9%
inhibition at 10 µM (NuaK2; read-out: % inhibition (range)): 0%
inhibition at 10 µM (NuaK2; read-out: inhibition (10 μM)): 11.2%
